Laboratory results published in patent US20060069132A1, “Azolecarboxamide herbicides” (priority 2004, published 2006).

Key:
hairy beggarticks = assay: Test E pre-/postemergence herbicide test; format: in vivo, Bidens radiata; settings: Preemergence
Source text: Seeds of plant species selected from bipinnate beggarticks (Bidens bipinnata L.), hairy beggarticks (Bidens radiata Thuill.), bermudagrass (Cynodon dactylon (L.) Pers.), Surinam grass (Urochloa decumbens (Staph) R. D. Webster, previously named Brachiaria decumbens Stapf), large crabgrass (Digitaria sanguinalis (L.) Scop.), green foxtail (Setaria viridis (L.) P. Beauv.), goosegrass (Eleusine indica (L.) Gaertn.), johnsongrass (Sorghum halepense (L.) Pers.), kochia (Kochia scoparia (L.) Schrad.), pitted morningglory (Ipomoea lacunosa L.), purple nutsedge (Cyperus rotundus L.), common ragweed (Ambrosia elatior L.), mustard (Brassica nigra (L.) W. D. J. Koch), guineagrass (Panicum maximum Jacq.), dallisgrass (Paspalum dilatatum Poir.), barnyardgrass (Echinochloa crus-galli (L). P. Beauv.), southern sandbur (Cenchrus echinatus L.), common sowthistle (Sonchus oleraceous L.), prickly sida (Sida spinosa L.), Italian ryegrass (Lolium multiflorum Lam.), common purslane (Portulaca oleracea L.), broadleaf signalgrass (Brachiaria platyphylla (Griseb.) Nash), common groundsel (Senecio vulgaris L.), common chickweed (Stellaria media (L.) Vill/Cyr.), tropical spiderwort (Commelina benghalensis L.), annual bluegrass (Poa annua L.), downy bromegrass (Bromus tectorum L.), itchgrass (Rottboellia cochinchinensis (L.) L.f.), quackgrass (Elytrigia repens (L.) Nevski), Canada horseweed (Erigeron Canadensis L.), field bindweed (Convolvulus arvensis L.), spotted spurge (Euphorbia maculata L.), common mallow (Malva sylvestris (=s silvestris) L.), and Russian thistle (Salsola kali L. ssp. Ruthenica (Iljin) Soo) were planted and treated preemergence with test chemicals formulated in a non-phytotoxic solvent mixture which included a surfactant.
At the same time, plants selected from these weed species were treated with postemergence applications of some of the test chemicals formulated in the same manner. Plants ranged in height from 2 to 18 cm (1- to 4-leaf stage) for postemergence treatments. Treated plants and controls were maintained in a greenhouse for 12 to 14 days, after which time all species were compared to controls and visually evaluated. Plant response ratings, summarized in Table E, are based on a scale of 0 to 100 where 0 is no effect and 100 is complete control. A dash (-) response means no test result.

Surinam grass = assay: Test E pre-/postemergence herbicide test; format: in vivo, Urochloa decumbens
How it was run: (§1)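 Greenhouse response scored visually 12 to 14 days after treatment versus controls, 0 meaning no effect and 100 complete control. Compounds, formulated with surfactant in a non-phytotoxic solvent blend, were sprayed either preemergence after sowing or postemergence at the 1- to 4-leaf stage (2 to 18 cm).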

johnsongrass = assay: Test E pre-/postemergence herbicide test; format: in vivo, Sorghum halepense
How it was run: as §1

purple nutsedge = assay: Test E pre-/postemergence herbicide test; format: in vivo, Cyperus rotundus
How it was run: as §1

mustard = assay: Test E pre-/postemergence herbicide test; format: in vivo, Brassica nigra
How it was run: as §1

barnyardgrass = assay: Test E pre-/postemergence herbicide test; format: in vivo, Echinochloa crus-galli
How it was run: as §1

broadleaf signalgrass = assay: Test E pre-/postemergence herbicide test; format: in vivo, Brachiaria platyphylla
How it was run: as §1

tropical spiderwort = assay: Test E pre-/postemergence herbicide test; format: in vivo, Commelina benghalensis
How it was run: as §1

quackgrass = assay: Test E pre-/postemergence herbicide test; format: in vivo, Elytrigia repens
How it was run: as §1

bipinnate beggarticks = assay: Test E pre-/postemergence herbicide test; format: in vivo, Bidens bipinnata
How it was run: as §1

common purslane = assay: Test E pre-/postemergence herbicide test; format: in vivo, Portulaca oleracea
How it was run: as §1

common groundsel = assay: Test E pre-/postemergence herbicide test; format: in vivo, Senecio vulgaris
How it was run: as §1

wheat = assay: Test C postemergence herbicide test; format: in vivo, Triticum aestivum
How it was run: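 Plants were grown to the 1- to 4-leaf stage (2–18 cm) and then treated postemergence, or grown to the 2-leaf stage for the flooded paddy test. They were held in a greenhouse for 12 to 14 days and then scored by eye against controls, where 0 is no effect and 100 is complete control.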

common chickweed = assay: Test E pre-/postemergence herbicide test; format: in vivo, Stellaria media; settings: Preemergence
How it was run: as §1

[1] = 250 g ai/ha, scale 0 (no effect) to 100 (complete control)
[2] = 375 g ai/ha, scale 0 (no effect) to 100 (complete control)
[3] = 500 g ai/ha, scale 0 (no effect) to 100 (complete control)
[4] = Preemergence, 125 g ai/ha, scale 0 to 100
[5] = Preemergence, 375 g ai/ha, scale 0 (no effect) to 100 (complete control)
[6] = Preemergence, 500 g ai/ha, scale 0 (no effect) to 100 (complete control)
[7] = Preemergence, 250 g ai/ha, scale 0 (no effect) to 100 (complete control)
[8] = Postemergence, 500 g ai/ha, scale 0 to 100
[9] = Postemergence, 250 g ai/ha, scale 0 to 100
[10] = postemergence, 125 g ai/ha, scale 0 to 100
[11] = postemergence, 62 g ai/ha, scale 0 to 100
[12] = Preemergence, 62 g ai/ha, scale 0 to 100

CCc1nn(C(C)(C)C)cc1C(=O)Nc1cc(C(=O)N(C)C)ccn1 [Compound 293]
Plant response rating, Beggarticks, Hairy (hairy beggarticks; 125 g ai/ha, scale 0 to 100): 100
Plant response rating, Beggarticks, Hairy (hairy beggarticks; [1]): 100
Plant response rating, Beggarticks, Hairy (hairy beggarticks; [2]): 100
Plant response rating, Beggarticks, Hairy (hairy beggarticks; [3]): 100
Plant response rating, Surinam Grass (Surinam grass; [4]): 80
Plant response rating, Surinam Grass (Surinam grass; [5]): 100
Plant response rating, Surinam Grass (Surinam grass; [6]): 100
Plant response rating, Johnsongrass (johnsongrass; [4]): 10
Plant response rating, Johnsongrass (johnsongrass; [7]): 60
Plant response rating, Johnsongrass (johnsongrass; [5]): 70
Plant response rating, Johnsongrass (johnsongrass; [6]): 85
Plant response rating, Nutsedge, Purple (purple nutsedge; [7]): 40
Plant response rating, Nutsedge, Purple (purple nutsedge; [5]): 50
Plant response rating, Nutsedge, Purple (purple nutsedge; [6]): 60
Plant response rating, Black Mustard (mustard; [4]): 95
Plant response rating, Black Mustard (mustard; [7]): 100
Plant response rating, Black Mustard (mustard; [5]): 100
Plant response rating, Black Mustard (mustard; [6]): 100
Plant response rating, Barnyardgrass (barnyardgrass; [4]): 60
Plant response rating, Barnyardgrass (barnyardgrass; [7]): 100
Plant response rating, Barnyardgrass (barnyardgrass; [5]): 100
Plant response rating, Barnyardgrass (barnyardgrass; [6]): 100
Plant response rating, Signalgrass (broadleaf signalgrass; [4]): 50
Plant response rating, Signalgrass (broadleaf signalgrass; [7]): 95
Plant response rating, Signalgrass (broadleaf signalgrass; [5]): 95
Plant response rating, Signalgrass (broadleaf signalgrass; [6]): 100
Plant response rating, Spiderwort (tropical spiderwort; [4]): 60
Plant response rating, Spiderwort (tropical spiderwort; [7]): 80
Plant response rating, Spiderwort (tropical spiderwort; [5]): 80
Plant response rating, Spiderwort (tropical spiderwort; [6]): 90
Plant response rating, Quackgrass (quackgrass; [4]): 70
Plant response rating, Quackgrass (quackgrass; [7]): 80
Plant response rating, Quackgrass (quackgrass; [5]): 95
Plant response rating, Quackgrass (quackgrass; [6]): 95

CCn1nc(C(C)(C)C)cc1C(=O)Nc1cc(C(=S)N(C)C)ccc1F [Compound 294]
Plant response rating, Beggarticks, Bip. (bipinnate beggarticks; [8]): 75
Plant response rating, Beggarticks, Bip. (bipinnate beggarticks; [9]): 70
Plant response rating, Beggarticks, Bip. (bipinnate beggarticks; [10]): 60
Plant response rating, Beggarticks, Bip. (bipinnate beggarticks; [11]): 40
Plant response rating, Beggarticks, Hairy (hairy beggarticks; 125 g ai/ha, scale 0 to 100): 100
Plant response rating, Beggarticks, Hairy (hairy beggarticks; [1]): 100
Plant response rating, Beggarticks, Hairy (hairy beggarticks; [2]): 100
Plant response rating, Beggarticks, Hairy (hairy beggarticks; [3]): 100
Plant response rating, Surinam Grass (Surinam grass; [8]): 85
Plant response rating, Surinam Grass (Surinam grass; [9]): 80
Plant response rating, Surinam Grass (Surinam grass; [4]): 95
Plant response rating, Surinam Grass (Surinam grass; [5]): 100
Plant response rating, Surinam Grass (Surinam grass; [6]): 100
Plant response rating, Surinam Grass (Surinam grass; [10]): 70
Plant response rating, Surinam Grass (Surinam grass; [11]): 30
Plant response rating, Johnsongrass (johnsongrass; [8]): 90
Plant response rating, Johnsongrass (johnsongrass; [9]): 80
Plant response rating, Johnsongrass (johnsongrass; [4]): 30
Plant response rating, Johnsongrass (johnsongrass; [7]): 75
Plant response rating, Johnsongrass (johnsongrass; [5]): 85
Plant response rating, Johnsongrass (johnsongrass; [6]): 85
Plant response rating, Johnsongrass (johnsongrass; [10]): 70
Plant response rating, Johnsongrass (johnsongrass; [11]): 40
Plant response rating, Nutsedge, Purple (purple nutsedge; [8]): 90
Plant response rating, Nutsedge, Purple (purple nutsedge; [9]): 80
Plant response rating, Nutsedge, Purple (purple nutsedge; [4]): 80
Plant response rating, Nutsedge, Purple (purple nutsedge; [7]): 80
Plant response rating, Nutsedge, Purple (purple nutsedge; [5]): 80
Plant response rating, Nutsedge, Purple (purple nutsedge; [6]): 90
Plant response rating, Nutsedge, Purple (purple nutsedge; [10]): 70
Plant response rating, Nutsedge, Purple (purple nutsedge; [11]): 50
Plant response rating, Black Mustard (mustard; [8]): 95
Plant response rating, Black Mustard (mustard; [9]): 90
Plant response rating, Black Mustard (mustard; [4]): 100
Plant response rating, Black Mustard (mustard; [7]): 100
Plant response rating, Black Mustard (mustard; [5]): 100
Plant response rating, Black Mustard (mustard; [6]): 100
Plant response rating, Black Mustard (mustard; [10]): 90
Plant response rating, Black Mustard (mustard; [11]): 70
Plant response rating, Barnyardgrass (barnyardgrass; [8]): 80
Plant response rating, Barnyardgrass (barnyardgrass; [9]): 75
Plant response rating, Barnyardgrass (barnyardgrass; [4]): 95
Plant response rating, Barnyardgrass (barnyardgrass; [7]): 95
Plant response rating, Barnyardgrass (barnyardgrass; [5]): 100
Plant response rating, Barnyardgrass (barnyardgrass; [6]): 100
Plant response rating, Barnyardgrass (barnyardgrass; [10]): 60
Plant response rating, Barnyardgrass (barnyardgrass; [11]): 40
Plant response rating, Purslane (common purslane; [8]): 90
Plant response rating, Purslane (common purslane; [9]): 90
Plant response rating, Purslane (common purslane; [10]): 60
Plant response rating, Purslane (common purslane; [11]): 10
Plant response rating, Signalgrass (broadleaf signalgrass; [8]): 70
Plant response rating, Signalgrass (broadleaf signalgrass; [9]): 50
Plant response rating, Signalgrass (broadleaf signalgrass; [4]): 50
Plant response rating, Signalgrass (broadleaf signalgrass; [7]): 70
Plant response rating, Signalgrass (broadleaf signalgrass; [5]): 80
Plant response rating, Signalgrass (broadleaf signalgrass; [6]): 80
Plant response rating, Signalgrass (broadleaf signalgrass; [10]): 30
Plant response rating, Signalgrass (broadleaf signalgrass; [11]): 30
Plant response rating, Groundsel (common groundsel; [9]): 90
Plant response rating, Groundsel (common groundsel; [11]): 50
Plant response rating, Spiderwort (tropical spiderwort; [8]): 90
Plant response rating, Spiderwort (tropical spiderwort; [9]): 70
Plant response rating, Spiderwort (tropical spiderwort; [7]): 85
Plant response rating, Spiderwort (tropical spiderwort; [5]): 90
Plant response rating, Spiderwort (tropical spiderwort; [6]): 95
Plant response rating, Spiderwort (tropical spiderwort; [10]): 30
Plant response rating, Spiderwort (tropical spiderwort; [11]): 20
Plant response rating, Quackgrass (quackgrass; [8]): 85
Plant response rating, Quackgrass (quackgrass; [9]): 85
Plant response rating, Quackgrass (quackgrass; [4]): 80
Plant response rating, Quackgrass (quackgrass; [7]): 80
Plant response rating, Quackgrass (quackgrass; [5]): 95
Plant response rating, Quackgrass (quackgrass; [6]): 95
Plant response rating, Quackgrass (quackgrass; [10]): 80
Plant response rating, Quackgrass (quackgrass; [11]): 60

CCNC(=O)c1cccc(NC(=O)c2nn(C(C)(C)C)nc2C)c1 [Compound 392]
Plant response rating, Wheat (wheat; Postemergence, 500 g ai/ha, scale 0 to 100, 0 no effect, 100 complete control): 35
Plant response rating, Wheat (wheat; [10]): 30
Plant response rating, Wheat (wheat; [11]): 20
Plant response rating, Beggarticks, Bip. (bipinnate beggarticks; [4]): 10
Plant response rating, Beggarticks, Bip. (bipinnate beggarticks; [7]): 80
Plant response rating, Beggarticks, Bip. (bipinnate beggarticks; [6]): 100
Plant response rating, Surinam Grass (Surinam grass; [4]): 60
Plant response rating, Surinam Grass (Surinam grass; [6]): 95
Plant response rating, Johnsongrass (johnsongrass; [12]): 10
Plant response rating, Johnsongrass (johnsongrass; [4]): 30
Plant response rating, Johnsongrass (johnsongrass; [7]): 90
Plant response rating, Johnsongrass (johnsongrass; [6]): 95
Plant response rating, Black Mustard (mustard; [12]): 60
Plant response rating, Black Mustard (mustard; [7]): 85
Plant response rating, Black Mustard (mustard; [6]): 100
Plant response rating, Barnyardgrass (barnyardgrass; [12]): 75
Plant response rating, Barnyardgrass (barnyardgrass; [4]): 75
Plant response rating, Barnyardgrass (barnyardgrass; [7]): 90
Plant response rating, Barnyardgrass (barnyardgrass; [6]): 100
Plant response rating, Purslane (common purslane; [4]): 90
Plant response rating, Purslane (common purslane; [7]): 100
Plant response rating, Purslane (common purslane; [6]): 100
Plant response rating, Signalgrass (broadleaf signalgrass; [12]): 10
Plant response rating, Signalgrass (broadleaf signalgrass; [4]): 30
Plant response rating, Signalgrass (broadleaf signalgrass; [7]): 70
Plant response rating, Signalgrass (broadleaf signalgrass; [6]): 85
Plant response rating, Groundsel (common groundsel; [12]): 10
Plant response rating, Groundsel (common groundsel; [4]): 60
Plant response rating, Groundsel (common groundsel; [7]): 60
Plant response rating, Groundsel (common groundsel; [6]): 95
Plant response rating, Chickweed (common chickweed; 62 g ai/ha, scale 0 to 100): 60
Plant response rating, Chickweed (common chickweed; 125 g ai/ha, scale 0 to 100): 95
Plant response rating, Chickweed (common chickweed; [1]): 95
Plant response rating, Chickweed (common chickweed; [3]): 95
Plant response rating, Spiderwort (tropical spiderwort; [4]): 50
Plant response rating, Spiderwort (tropical spiderwort; [7]): 95
Plant response rating, Spiderwort (tropical spiderwort; [6]): 100
Plant response rating, Quackgrass (quackgrass; [12]): 10
Plant response rating, Quackgrass (quackgrass; [4]): 60
Plant response rating, Quackgrass (quackgrass; [7]): 70
Plant response rating, Quackgrass (quackgrass; [6]): 95
